Results: patent US6706663B2, “Herbicidal 3-heterocyclic substituted benzisothiazole and benzisoxazole compounds” (Wyeth, priority 2000, dated 2004)

Columns and labels:
[1] = tested on: CHEAL (Chenopodium album); test: Preemergence herbicidal evaluation; format: in vivo, L.; conditions: preemergence, rate 1.0000 kg/ha, rated 4-5 weeks after treatment
How it was run: (§1)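 Applied before emergence as an aqueous acetone spray over seeded soil. Read-out: 0–9 visual rating covering plant stand, vigor, size, chlorosis, malformation and overall appearance compared with control, taken 4–5 weeks after spraying.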

[2] = tested on: AMBEL (Ambrosia artemisifolia); test: Preemergence herbicidal evaluation; format: in vivo, L.; conditions: preemergence, rate 1.0000 kg/ha, rated 4-5 weeks after treatment
How it was run: as §1

[3] = tested on: ABUTH (Abutilon theophrasti); test: Preemergence herbicidal evaluation; format: in vivo, Medic.; conditions: preemergence, rate 1.0000 kg/ha, rated 4-5 weeks after treatment
GALAP (Galium aparine) = test: Preemergence herbicidal evaluation; format: in vivo; conditions: preemergence, rate 1.0000 kg/ha, rated 4-5 weeks after treatment
How it was run: as §1

[4] = tested on: ECHCG (Echinochloa crus-galli); test: Preemergence herbicidal evaluation; format: in vivo, (L.) Beau; conditions: preemergence, rate 1.0000 kg/ha, rated 4-5 weeks after treatment
How it was run: as §1

SETVI (Setaria viridis) [5] = test: Preemergence herbicidal evaluation; format: in vivo, (L.) Beau; conditions: preemergence, rate 1.0000 kg/ha, rated 4-5 weeks after treatment
How it was run: as §1

ZEAMX (Corn, Field) [6] = test: Preemergence herbicidal evaluation; format: in vivo, Zea mays, L.; conditions: preemergence, rate 1.0000 kg/ha, rated 4-5 weeks after treatment
[7] = tested on: TRZAWR (Wheat, Winter, cv Riband); test: Preemergence herbicidal evaluation; format: in vivo, Triticum aestivum; conditions: preemergence, rate 1.0000 kg/ha, rated 4-5 weeks after treatment
How it was run: as §1

[8] = tested on: GLXMAW (Soybean, Williams); test: Preemergence herbicidal evaluation; format: in vivo, Glycine max, (L.) Merr. cv Williams; conditions: preemergence, rate 1.0000 kg/ha, rated 4-5 weeks after treatment
ORYSAT (Rice, Tebonnet) = test: Preemergence herbicidal evaluation; format: in vivo, Oryza sativa, (L.) Tebonnet; conditions: preemergence, rate 1.0000 kg/ha, rated 4-5 weeks after treatment
IPOSS (Ipomoea Spp.) = test: Preemergence herbicidal evaluation; format: in vivo; conditions: rate 1.0000 kg/ha, rated 4-5 weeks after treatment
Source text: (§2) Results of herbicide evaluation are expressed on a rating scale (0-9). The scale is based upon a visual observation of plant stand, vigor, malformation, size, chlorosis and overall plant appearance as compared with a control.
The preemergence herbicidal activity of the test compounds of the present invention is exemplified by the following tests in which the seeds of a variety of monocotyledonous and dicotyledonous plants are separately mixed with potting soil and planted on top of approximately one inch of soil in separate pint cups. After planting, the cups are sprayed with the selected aqueous acetone solution containing test compound in sufficient quantity to provide the equivalent of about […] per hectare of test compound per cup. The treated cups are then placed on greenhouse benches, watered and cared for in accordance with conventional greenhouse procedures. From four to five weeks after treatment, the tests are terminated and each cup is examined and rated according to the rating system provided in Example 87. The plant species used and the compounds evaluated are the same as those shown in Example 87.

[9] = tested on: IPOHE (Ipomoea hederacea); test: Postemergence herbicidal evaluation; format: in vivo, (L.) Jacq.; conditions: postemergence
How it was run: (§3)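 Seedlings grown about two weeks in flats, sprayed, then kept under standard greenhouse care. Rated visually 4–5 weeks after treatment on a 0–9 scale (stand, vigour, malformation, size, chlorosis, overall appearance) relative to untreated control; repeat tests averaged.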

GLXMA (Soybean) = test: Postemergence herbicidal evaluation; format: in vivo, Glycine max, (L.) Merr.; conditions: postemergence
Method: In the tests, seedling plants are grown in jiffy flats for about two weeks. The test compounds are dispersed in 50/50 acetone/water mixtures containing 0.5% TWEEN® 20, a polyoxyethylene sorbitan monolaurate surfactant of Atlas Chemical Industries, in sufficient quantities to provide the equivalent of about 0.0040 kg to 1.000 kg per hectare of active compound when applied to the plants through a spray nozzle operating at 40 psi for a predetermined time. After spraying, the plants are placed on greenhouse benches and are cared for in accordance with conventional greenhouse procedures. From four to five weeks after treatment, the seedling plants are examined and rated according to the rating system set forth below. Where more than one test is involved for a given compound, the data are averaged.
as §2

ZEAMX (Corn, Field) [10] = test: Postemergence herbicidal evaluation; format: in vivo, Zea mays, L.; conditions: postemergence
How it was run: as §3

SETVI (Setaria viridis) [11] = test: Postemergence herbicidal evaluation; format: in vivo, (L.) Beau; conditions: postemergence
How it was run: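 Seedlings about two weeks old were sprayed with compound in 50/50 acetone/water plus 0.5% TWEEN 20, at the equivalent of about 0.0040 to 1.000 kg/ha. Plants were kept in a greenhouse and visually rated 0-9 against a control four to five weeks after treatment. Repeat tests were averaged.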

[12] = tested on: ECHCG (Echinochloa crus-galli); test: Postemergence herbicidal evaluation; format: in vivo, (L.) Beau; conditions: postemergence
How it was run: as §3

[13] = tested on: CHEAL (Chenopodium album); test: Postemergence herbicidal evaluation; format: in vivo, L.; conditions: postemergence
How it was run: as §3

[14] = tested on: AMBEL (Ambrosia artemisifolia); test: Postemergence herbicidal evaluation; format: in vivo, L.; conditions: postemergence
How it was run: as §3

[15] = tested on: ABUTH (Abutilon theophrasti); test: Postemergence herbicidal evaluation; format: in vivo, Medic.; conditions: postemergence
How it was run: as §3

Cn1c(C(F)(F)F)cc(=O)n(-c2ccc3snc(C4(O)N=C(c5ccccc5)NC4=O)c3c2)c1=O (stereo not drawn) [Compound 94, 3-[3-(4-hydroxy-5-oxo-2-phenyl-2-imidazolin-4-yl)-1,2-benzisothiazol-5-yl]-1-methyl-6-(trifluoromethyl)uracil]
Preemergence herbicidal rating CHEAL [1]: 8.0 | Preemergence herbicidal rating AMBEL [2]: 5.0 | Preemergence herbicidal rating ABUTH [3]: 7.0 | Preemergence herbicidal rating GALAP (GALAP (Galium aparine)): 8.0 | Preemergence herbicidal rating ECHCG [4]: 2.0 | Preemergence herbicidal rating SETVI (SETVI (Setaria viridis) [5]): 5.0 | Preemergence herbicidal rating ZEAMX (ZEAMX (Corn, Field) [6]): 3.0 | Preemergence herbicidal rating TRZAWR [7]: 5.0 | Preemergence herbicidal rating GLXMAW [8]: 5.0 | Preemergence herbicidal rating ORYSAT (ORYSAT (Rice, Tebonnet)): 6.0 | Preemergence herbicidal rating IPOSS (IPOSS (Ipomoea Spp.)): 7.0

Cn1c(C(F)(F)F)cc(=O)n(-c2ccc3snc(C4(O)N=C(C(C)(C)C)NC4=O)c3c2)c1=O (stereo not drawn) [Compound 95, 3-[3-(2-tert-butyl-4-hydroxy-5-oxo-2-imidazolin-4-yl)-1,2-benzisothiazol-5-yl]-1-methyl-6-(trifluoromethyl)uracil]
IPOHE herbicidal rating ([9]; rate 0.0320 kg/ha): 8.0 | IPOHE herbicidal rating ([9]; rate 0.0620 kg/ha): 9.0 | GLXMA herbicidal rating (GLXMA (Soybean); rate 0.0320 kg/ha): 8.0 | GLXMA herbicidal rating (GLXMA (Soybean); rate 0.0620 kg/ha): 8.0 | ZEAMX herbicidal rating (ZEAMX (Corn, Field) [10]; rate 0.0320 kg/ha): 3.5 | ZEAMX herbicidal rating (ZEAMX (Corn, Field) [10]; rate 0.0620 kg/ha): 3.5 | SETVI herbicidal rating (SETVI (Setaria viridis) [11]; rate 0.0320 kg/ha): 4.0 | SETVI herbicidal rating (SETVI (Setaria viridis) [11]; rate 0.0620 kg/ha): 7.0 | ECHCG herbicidal rating ([12]; rate 0.0320 kg/ha): 2.0 | ECHCG herbicidal rating ([12]; rate 0.0620 kg/ha): 3.0 | CHEAL herbicidal rating ([13]; rate 0.0320 kg/ha): 8.0 | CHEAL herbicidal rating ([13]; rate 0.0620 kg/ha): 9.0 | AMBEL herbicidal rating ([14]; rate 0.0320 kg/ha): 4.0 | AMBEL herbicidal rating ([14]; rate 0.0620 kg/ha): 8.0 | ABUTH herbicidal rating ([15]; rate 0.0320 kg/ha): 9.0 | ABUTH herbicidal rating ([15]; rate 0.0620 kg/ha): 9.0
